From patent US5721106A, “In Vitro method for screening β-amyloid deposition” (Regents of the University of Minnesota, priority 1994, dated 1998) come the findings set out here.

The subject of experiment [1] is AD plaques. The experiment is described as follows: Deposition of ^125 I-labelled β-amyloid peptides onto plaques in AD brain tissue (homogenate binding, autoradiography). Further details: species or system human. The note with it: for deposition activity of fragment (active / not active): labelled fragment combined with AD amyloid plaque or silk, relative to βA(1-40)-OH; for plaque competence as a function of pH: growth of tissue plaques by deposition of labelled peptides from solution; for activity relative to the full length peptide βA(1-40)-OH: plaque deposition on AD brain sections, two hours, densitometry of autoradiograms. The procedure:
Fragments labelled in accordance with the method described herein can be combined with amyloid plaque derived from Alzheimer's disease tissue or other amyloid substance such as silk, and tested for activity, for example, their ability to deposit on these materials.
(§1) Brain tissue was obtained form normal and Alzheimer's disease patients at 0.5 to 14 hours postmortem, frozen on dry ice after collection, and stored at -20° C. until use. For filter binding studies, tissue homogenates were prepared after the method of H. P. Too and M. R. Hanley, Biochem. J. 252:545 (1988), the disclosure of which is incorporated by reference herein. Tissue was homogenized (Polytron, setting 7-8, 5-10 sec) in 5-10 volumes of 50 mM Tricine (pH 7.5) containing 10% sucrose and protease inhibitors (0.01% bacitracin, 0.002% soybean trypsin inhibitor, 0.0002% chicken egg trypsin inhibitor, 1 mM benzamidine hydrochloride) and pelleted at 10,000 g for 20 minutes. The homogenate was then resuspended and washed several times in Tricine buffer containing 120 mM NaCl, 10 mM EDTA, 300 mM KCl and centrifuged at 40,000 g for 20 minutes and stored at -20° C. for less than two months. Membranes (equivalent to about 30 mg tissue) were resuspended in 0.5 ml 50 mM TrisHCl (pH 7.5) containing 1 mg/ml bovine serum albumin (BSA), 10 mM MnCl2, 0.004% bacitracin, 0.002% chymostatin, 0.004% leupeptin, 0.1% dimethylsulfoxide for 30 minutes prior to addition of the radioligand (10^-11 to 10^-9 M) and various concentrations of unlabelled peptides in the same buffer.
(§2) After incubating for two hours at room temperature, the homogenates (final volume 0.575 ml) were filtered through glass fiber filters (Whatman GF/D), presoaked for at least two hours in 1 mg/ml BSA and rinsed with 25 mM Tricine (pH 7.5). After washing twice with 25 mM TrisHCl (pH 7.5) at room temperature, the filters were counted in a gamma counter.
For tissue autoradiography, unfixed tissue was serially sectioned at 5-15 μm and thaw-mounted onto gelatin-coated slices. Slide-mounted sections were stored at -20° C. in closed boxes over desiccant for less than three months before use. Sections were preincubated for 30 minutes and incubated with the radioligand for two hours under the same conditions according to the aforedescribed homogenate binding study. Alternatively, 50 mM TrisHCl rather than Tricine may be used as the buffer. For estimating nonspecific binding, paired serial sections were incubated with the radioligand in the presence of a 10^4 to 10^5 fold excess of the unlabelled peptide. Following incubation with the radioligand, the slides were washed with 50 mM TrisHCl pH 7.5 (four times, two minutes each at 4° C.), then dried at 4° C. and stored in closed boxes over desiccant at room temperature overnight. The fully dried slides were then placed in apposition to tritium-sensitive film alongside iodinated standards. After one week's exposure at -20° C., the film was developed, fixed and washed. […] This approach generated film autoradiograms for quantitative densitometry,a high resolution emulsion autoradiograms for detailed histology, and a counterstained section for identification of cell types from each tissue section.
Briefly peptides were purchased or synthesized by fluorenemethoxycarbonyl chemistry on polystyrene resins, using acid-labile blocking groups for sidechain protection, cleaved with trifluoroacetic acid, and purified by RP-HPLC. […] Autoradiograms were quantitated by densitometry. […] To study the peptide fragments in water we developed a novel approach, measuring NMR data at 750 MHz using a prototype 10 mm ^1 H pulsed field gradient probe. Modified two-dimensional homonuclear TOCSY and NOESY experiments were measured at several pH values and structural information was derived using standard methods.

In the next experiment the test system is tissue plaques. The experiment is described as follows: Effect of metal ions, chelating agent and detergents on deposition of labelled peptide on tissue plaques. Type of experiment: binding, human. The source says:
A deposition-enhancing agent may be added prior to the addition of the deposition-affecting agent to be tested.

The subject of a further experiment is ceilan katia yarn (silk). The experiment is described as follows: Effect of detergents and zinc on deposition of tracer onto silk. In kind it is binding, Bombyx silkworm.
For experiment [2], the system named is Alzheimer's disease plaques. The experiment is described as follows: Competitive inhibition of ^125 I-β-amyloid peptide^1-40 deposition in homogenates of Alzheimer's disease temporal cortex. In kind it is binding, human. The note with it: increasing concentrations of unlabelled peptide, AD temporal cortex homogenates (and sections). The procedure:
as §1, §2

Experiment [3] relates to AD plaques. The experiment is described as follows: Deposition of ^125 I-labelled β-amyloid peptides onto plaques in AD brain tissue (homogenate binding, autoradiography). Particulars: for plaque deposition (plaque competence) at pH 3.9: quantitative densitometry of autoradiograms; for plaque deposition at pH 5.8: 100% = deposition of ^125 I-βA(1-40)-OH at pH 7.4. Further details: species or system human.

The target of experiment [4] is amyloid plaques in Alzheimer's disease brain tissue (homogenates and thin sections). The experiment can be described thus: deposition of 125I-labelled peptide onto AD brain sections, autoradiography with densitometry.

Entries after “also recorded” stand apart in the source; their conditions may differ. Ends that are not written are not given here. Peptide text beside a SMILES is read from it. * marks the point of attachment. PEG = not defined here; 125I = [125I]* Bounds are passed on as bounds.

Sequence of βA(1-28)-OH (peptide) (peptide): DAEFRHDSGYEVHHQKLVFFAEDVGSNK

Regarding `CC[C@H](C)[C@H](NC(=O)[C@H](C)NC(=O)CNC(=O)[C@H](CCCCN)NC(=O)[C@H](CC(=O)O)NC(=O)[C@H](CO)NC(=O)CN)C(=O)N[C@H](C(=O)NCC(=O)N[C@@H](CC(C)C)C(=O)N[C@@H](CCSC)C(=O)O)[C@@H](C)CC` [D27-βA(25-35)-OH] (H-GSDKGAIIGLM-OH), the “deposition activity of fragment (active / not active)” value in the experiment with AD plaques [1] is listed as “not active (exhibit less than about 1% of the deposition level of βA(1-40)OH)”.

Turning to `O=C(O)CN(CCN(CC(=O)O)CC(=O)O)CC(=O)O` [EDTA, ethylene diamine tetraacetic acid], the “inhibition of the rate of deposition of labelled peptide” value with tissue plaques (0.1 mM) is listed as “five-fold”.

Consider `CCCCCCCCCCCC[N+](C)(C)CCCS(=O)(=O)[O-]` [Zwittergent 312], for which the “effect of detergent on deposition of labelled peptide on tissue plaques” value in the experiment on tissue plaques was “no effect”.

`[Cl-].[Cl-].[Zn+2]` [zinc chloride]: in the experiment with tissue plaques (0.1 mM), the “enhancement of the rate of deposition of labelled peptide” value is on record as “twenty-fold”. Moreover, the “effect on deposition of ^125 I-βA(26-42)-NH2 onto AD plaques” value in the experiment on tissue plaques (tracer ^125 I-βA(26-42)-NH2) was “unaffected”. Besides, the “factor of acceleration of deposition of ^125 I-βA(1-40)-OH onto silk thread” value in the experiment with ceilan katia yarn (silk) (tracer ^125 I-βA(1-40)-OH) is on record as “about 5”. Besides, in the experiment on ceilan katia yarn (silk) (tracer ^125 I-βA(26-42)-NH2), the “effect on deposition of ^125 I-βA(26-42)-NH2 onto silk” value is “unaffected”.

For `CC(C)C[C@H](NC(=O)[C@H](CCCCN)NC(=O)[C@H](CCC(N)=O)NC(=O)[C@H](Cc1c[nH]cn1)NC(=O)[C@H](Cc1c[nH]cn1)NC(=O)[C@@H](NC(=O)[C@@H](N)CCC(=O)O)C(C)C)C(=O)N[C@H](C(=O)N[C@@H](Cc1ccccc1)C(=O)N[C@@H](Cc1ccccc1)C(=O)N[C@@H](C)C(=O)N[C@@H](CCC(=O)O)C(=O)N[C@@H](CC(=O)O)C(=O)N[C@H](C(=O)NCC(=O)O)C(C)C)C(C)C` [βA(11-25)-OH], the “deposition activity of fragment (active / not active)” value in the experiment with AD plaques [1] is recorded as “not active (exhibit less than about 1% of the deposition level of βA(1-40)OH)”.

For the molecule `CC[C@H](C)[C@H](NC(=O)[C@H](C)NC(=O)CNC(=O)[C@H](CCCCN)NC(=O)[C@H](CC(N)=O)NC(=O)[C@H](CO)NC(=O)CN)C(=O)N[C@H](C(=O)NCC(=O)N[C@@H](CC(C)C)C(=O)N[C@@H](CCSC)C(N)=O)[C@@H](C)CC` [βA(25-35)-NH2] (H-GSNKGAIIGLM-NH2), the “inhibition of ^125 I-β-amyloid peptide^1-40 deposition onto plaques” value in experiment [2] (listed as β-amyloid peptide^25-35 -NH2) is “competed with the 40-mer radioligand when the former was present at much higher concentrations; also recorded: substantially less potent”. The “deposition activity of fragment (active / not active)” value in the experiment with AD plaques [1] is “not active (exhibit less than about 1% of the deposition level of βA(1-40)OH)”.

Turning to “(des-A2)-βA(1-40)-OH: 39-mer lacking the alanine at position 2”, the “deposition activity of fragment (active / not active)” value with AD plaques [1] was “active”.

As for “PEG-βA(10-35)-NH2: polyethylene glycol conjugate of βA(10-35)-NH2 ({PEG}-YEVHHQKLVFFAEDVGSNKGAIIGLM-NH2; reading uncertain)”, the “deposition activity of fragment (active / not active)” value in the experiment on AD plaques [1] was “not active (exhibit less than about 1% of the deposition level of βA(1-40)OH)”.

Turning to Triton X-100, the “effect of detergent on deposition of labelled peptide on tissue plaques” value with tissue plaques was “no effect”. Besides, the “effect of detergent on rate of deposition (binding) onto silk” value in the experiment on ceilan katia yarn (silk) (detergent concentration 0 to 1%) is recorded as “no effect”.

With “^125 I-βA(1-28)-OH: ^125 I-labelled βA(1-28)-OH”, in the experiment on AD plaques [3], the “plaque deposition (plaque competence) at pH 3.9” value (from here on “plaque deposition … at pH 3.9”) was “plaque-incompetent” and the “plaque deposition at pH 5.8” value was under 1%.

For the molecule “^125 I-βA(1-40)-OH: ^125 I-radioiodinated (monoiodinated, reduced) human β-amyloid peptide 1-40 tracer”, the “pH optimum of deposition onto plaques in AD tissue” value in the experiment on AD plaques [1] (100 pM) is listed as “around neutrality”. For the same molecule, in the experiment with AD plaques [1] (tissue without preformed plaques), the “deposition in tissue without preformed plaques” value is “no deposition was detected”. Moreover, in the experiment with AD plaques [3], the “plaque deposition … at pH 3.9” value was “plaque-incompetent” and the “plaque deposition at pH 5.8” value is on record as 83%.

As to “^125 I-βA(10-35)-NH2: ^125 I-labelled βA(10-35)-NH2, labelled at Tyr10 (Y(125I)EVHHQKLVFFAEDVGSNKGAIIGLM-NH2)”, in the experiment on AD plaques [3], the “plaque deposition … at pH 3.9” value is recorded as “plaque-incompetent” and the “plaque deposition at pH 5.8” value came to 30%.

Consider “rat βA(1-40)-OH: rat and mouse analogue (G^5, F^10, R^14) of β-amyloid peptide, 1-40 (DAEFGHDSGFEVHRQKLVFFAEDVGSNKGAIIGLMVGGVV-OH)”, for which the “inhibition of ^125 I-β-amyloid peptide^1-40 deposition onto plaques” value in experiment [2] (listed as rat β-amyloid peptide^1-40) is “essentially inactive”; in experiment [2] (listed as unlabelled rat β-amyloid peptide^1-40) it was “did not inhibit”. In addition, the “deposition activity of fragment (active / not active)” value in the experiment with AD plaques [1] is recorded as “not active (exhibit less than about 1% of the deposition level of βA(1-40)OH)”.

Consider βA(1-28)-OH (peptide), for which the activity relative to βA(1-40)-OH in experiment [4] is under 1%.

On to “βA(1-28)-OH: 28 residue fragment corresponding to the amino terminal region”, for which, in the experiment on AD plaques [1], the “plaque competence as a function of pH” value is “inactive at all pH values tested”, the “deposition activity of fragment (active / not active)” value is on record as “not active (exhibit less than about 1% of the deposition level of βA(1-40)OH)” and the “activity relative to the full length peptide βA(1-40)-OH” value is recorded as “less than 1%”.

For “βA(1-35)-NH2: carboxyamidated β-amyloid fragment, residues 1-35”, in the experiment on AD plaques [1], the “deposition activity of fragment (active / not active)” value is recorded as “active”.

For “βA(1-40)-PEG: β-amyloid peptide 1-40 conjugated to polyethylene glycol at the C-terminus”, the “deposition activity of fragment (active / not active)” value with AD plaques [1] is “active”.

Take “βA(10-35)-NH2: 26 residue carboxyamidated fragment from the central region of the βA sequence (YEVHHQKLVFFAEDVGSNKGAIIGLM-NH2; also: 125I at Tyr10 as tracer (name unlabelled))”: in the experiment on AD plaques [1], the “plaque competence as a function of pH” value is listed as “plaque-competent within the pH range of 5 to 9”, the “deposition activity of fragment (active / not active)” value is “active” and the “activity relative to the full length peptide βA(1-40)-OH” value was “about 35%”. In the experiment with AD plaques [1] (physiological (subnanomolar) peptide concentration), the “activity as fraction of the activity of βA(1-40)-OH” value is recorded as “about 1/3”.

“βA(10-35)-OH: β-amyloid fragment residues 10-35, free carboxyl terminus (YEVHHQKLVFFAEDVGSNKGAIIGLM-OH)”: the “deposition activity of fragment (active / not active)” value in the experiment with AD plaques [1] is “active”.

In experiment [4], YEVHHQKLVFFAEDVGSNKGAIIGLM-NH2 (not fully specified (residue 1)) [βA(10-35)-NH2] came in with an activity relative to the full length peptide of 35%.
